We go through six compounds from ChEMBL document CHEMBL5465560, “Selectivity Literature for EUbOPEN Chemogenomic Library” (2024).

Assay [1] has as its target Tyrosine-protein kinase HCK (Homo sapiens) (UniProt P08631). Briefly: Selectivity interaction (KinomeScan (DiscoverX)) EUB0000695a HCK. The conditions noted are these: at 100 nM.
For assay [2], the target named is Dual specificity testis-specific protein kinase 1 (Homo sapiens) (UniProt Q15569). Particulars: at 10 µM.
Assay [3] addresses T1, Serine/threonine-protein kinase Nek2 (Homo sapiens) (UniProt P51955).
T1 sequence (whole entry): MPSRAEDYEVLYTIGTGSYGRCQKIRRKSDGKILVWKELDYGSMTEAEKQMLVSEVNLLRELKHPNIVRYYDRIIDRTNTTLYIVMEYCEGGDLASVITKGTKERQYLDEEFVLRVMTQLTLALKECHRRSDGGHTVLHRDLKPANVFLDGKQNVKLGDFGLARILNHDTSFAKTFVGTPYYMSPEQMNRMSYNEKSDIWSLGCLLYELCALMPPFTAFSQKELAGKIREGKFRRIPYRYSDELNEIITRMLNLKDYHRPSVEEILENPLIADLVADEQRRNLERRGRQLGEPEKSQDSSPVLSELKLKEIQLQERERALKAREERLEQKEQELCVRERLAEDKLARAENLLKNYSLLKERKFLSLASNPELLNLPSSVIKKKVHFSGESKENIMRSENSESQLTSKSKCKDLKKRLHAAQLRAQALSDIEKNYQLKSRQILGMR
Briefly: Selectivity interaction (KinomeScan (DiscoverX)) EUB0000045b NEK2.

The target in assay [4] is Activin receptor type-2B (Homo sapiens) (UniProt Q13705). Nature of the assay: Selectivity interaction (KinomeScan (DiscoverX)) EUB0000655a ACVR2B. Particulars: at 10 µM.
Chain of Activin receptor type-2B (Homo sapiens) (Q13705 whole entry): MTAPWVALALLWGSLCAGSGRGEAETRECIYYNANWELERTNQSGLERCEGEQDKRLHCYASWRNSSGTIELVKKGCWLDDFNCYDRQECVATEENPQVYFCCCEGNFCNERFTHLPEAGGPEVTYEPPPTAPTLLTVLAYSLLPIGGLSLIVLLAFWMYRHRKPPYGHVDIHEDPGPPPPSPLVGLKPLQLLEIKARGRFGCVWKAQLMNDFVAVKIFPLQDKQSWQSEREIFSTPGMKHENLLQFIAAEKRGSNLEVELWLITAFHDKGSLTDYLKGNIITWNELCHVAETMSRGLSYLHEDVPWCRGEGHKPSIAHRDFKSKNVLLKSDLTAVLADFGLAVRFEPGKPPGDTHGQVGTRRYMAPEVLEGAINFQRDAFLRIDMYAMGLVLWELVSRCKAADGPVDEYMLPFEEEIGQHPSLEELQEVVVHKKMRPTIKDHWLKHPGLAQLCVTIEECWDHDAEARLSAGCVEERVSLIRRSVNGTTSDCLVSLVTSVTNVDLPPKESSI
The target of assay [5] is T2, Histone-lysine N-methyltransferase EHMT2 (Homo sapiens) (UniProt Q96KQ7).
T2 sequence (whole entry): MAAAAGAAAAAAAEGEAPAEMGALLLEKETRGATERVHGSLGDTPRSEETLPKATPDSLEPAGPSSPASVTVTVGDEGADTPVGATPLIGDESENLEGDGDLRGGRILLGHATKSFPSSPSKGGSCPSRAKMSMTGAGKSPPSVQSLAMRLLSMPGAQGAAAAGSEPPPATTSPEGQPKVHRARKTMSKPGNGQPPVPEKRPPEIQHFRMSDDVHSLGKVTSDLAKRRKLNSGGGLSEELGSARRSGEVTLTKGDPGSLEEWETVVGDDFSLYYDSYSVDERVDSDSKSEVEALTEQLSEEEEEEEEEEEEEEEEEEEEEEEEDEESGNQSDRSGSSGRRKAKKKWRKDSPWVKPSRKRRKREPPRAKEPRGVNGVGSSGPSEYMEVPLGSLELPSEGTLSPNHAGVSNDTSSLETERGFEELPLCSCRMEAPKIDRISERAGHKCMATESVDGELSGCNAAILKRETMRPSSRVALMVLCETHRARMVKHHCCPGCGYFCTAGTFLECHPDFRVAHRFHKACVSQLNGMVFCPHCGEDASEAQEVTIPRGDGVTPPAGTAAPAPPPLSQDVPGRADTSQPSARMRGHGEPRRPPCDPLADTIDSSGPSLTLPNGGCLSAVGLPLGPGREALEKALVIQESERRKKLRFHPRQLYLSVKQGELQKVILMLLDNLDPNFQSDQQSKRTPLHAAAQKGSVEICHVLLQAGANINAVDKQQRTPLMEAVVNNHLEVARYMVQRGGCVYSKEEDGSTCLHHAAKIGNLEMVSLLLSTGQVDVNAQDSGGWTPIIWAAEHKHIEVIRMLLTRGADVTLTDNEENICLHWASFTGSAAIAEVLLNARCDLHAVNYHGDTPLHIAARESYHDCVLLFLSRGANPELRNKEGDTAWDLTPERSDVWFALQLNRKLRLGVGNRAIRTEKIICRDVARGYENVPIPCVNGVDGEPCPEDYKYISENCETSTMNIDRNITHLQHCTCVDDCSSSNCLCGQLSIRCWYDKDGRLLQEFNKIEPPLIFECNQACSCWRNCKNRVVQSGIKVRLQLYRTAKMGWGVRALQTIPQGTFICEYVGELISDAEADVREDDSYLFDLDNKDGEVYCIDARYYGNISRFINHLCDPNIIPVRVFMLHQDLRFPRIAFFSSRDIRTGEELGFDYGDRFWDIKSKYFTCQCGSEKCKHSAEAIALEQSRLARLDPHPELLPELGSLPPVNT
Briefly: Selectivity interaction (Transferase panel (protein, RNA, and DNA methyltransferases. and EP300 (acetyltransferase))) EUB0000270b EHMT2.

Assay [6] has as its target T3, Serine/threonine-protein kinase TAO1 (Homo sapiens) (UniProt Q7L7X3).
T3 sequence (whole entry): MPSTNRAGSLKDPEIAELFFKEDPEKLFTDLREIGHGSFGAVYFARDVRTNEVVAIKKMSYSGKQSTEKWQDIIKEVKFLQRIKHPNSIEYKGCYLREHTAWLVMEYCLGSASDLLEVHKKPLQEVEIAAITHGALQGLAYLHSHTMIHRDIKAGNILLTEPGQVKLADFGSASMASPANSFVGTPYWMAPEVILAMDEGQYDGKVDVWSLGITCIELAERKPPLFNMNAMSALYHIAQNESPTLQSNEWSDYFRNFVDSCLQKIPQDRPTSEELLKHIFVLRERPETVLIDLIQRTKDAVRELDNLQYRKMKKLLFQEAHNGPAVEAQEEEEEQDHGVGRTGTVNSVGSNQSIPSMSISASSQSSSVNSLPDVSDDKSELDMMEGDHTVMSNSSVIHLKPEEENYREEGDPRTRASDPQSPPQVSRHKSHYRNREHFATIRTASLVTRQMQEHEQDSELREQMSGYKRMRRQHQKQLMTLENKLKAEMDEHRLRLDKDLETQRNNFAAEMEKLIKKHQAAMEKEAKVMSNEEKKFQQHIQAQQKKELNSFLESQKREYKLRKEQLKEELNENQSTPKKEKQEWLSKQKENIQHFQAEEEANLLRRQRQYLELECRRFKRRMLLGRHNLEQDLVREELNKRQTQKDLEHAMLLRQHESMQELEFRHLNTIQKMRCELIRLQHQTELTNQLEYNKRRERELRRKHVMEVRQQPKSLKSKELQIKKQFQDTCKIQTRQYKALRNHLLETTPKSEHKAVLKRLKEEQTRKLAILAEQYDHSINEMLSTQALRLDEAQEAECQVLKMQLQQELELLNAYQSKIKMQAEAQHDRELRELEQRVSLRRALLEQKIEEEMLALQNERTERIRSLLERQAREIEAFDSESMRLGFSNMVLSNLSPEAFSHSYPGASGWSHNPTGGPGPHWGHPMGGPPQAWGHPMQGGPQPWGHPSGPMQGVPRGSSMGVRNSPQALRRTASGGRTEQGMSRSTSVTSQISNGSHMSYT
Nature of the assay: Selectivity interaction (KinomeScan (DiscoverX)) EUB0000229b TAOK1. Particulars: at 10 µM.

Assay [7] deals with Angiopoietin-1 receptor (Homo sapiens) (UniProt Q02763). Nature of the assay: Selectivity interaction (KinomeScan (DiscoverX)) EUB0000229b TEK. The conditions noted are these: at 10 µM.
Chain of Angiopoietin-1 receptor (Homo sapiens) (Q02763 whole entry): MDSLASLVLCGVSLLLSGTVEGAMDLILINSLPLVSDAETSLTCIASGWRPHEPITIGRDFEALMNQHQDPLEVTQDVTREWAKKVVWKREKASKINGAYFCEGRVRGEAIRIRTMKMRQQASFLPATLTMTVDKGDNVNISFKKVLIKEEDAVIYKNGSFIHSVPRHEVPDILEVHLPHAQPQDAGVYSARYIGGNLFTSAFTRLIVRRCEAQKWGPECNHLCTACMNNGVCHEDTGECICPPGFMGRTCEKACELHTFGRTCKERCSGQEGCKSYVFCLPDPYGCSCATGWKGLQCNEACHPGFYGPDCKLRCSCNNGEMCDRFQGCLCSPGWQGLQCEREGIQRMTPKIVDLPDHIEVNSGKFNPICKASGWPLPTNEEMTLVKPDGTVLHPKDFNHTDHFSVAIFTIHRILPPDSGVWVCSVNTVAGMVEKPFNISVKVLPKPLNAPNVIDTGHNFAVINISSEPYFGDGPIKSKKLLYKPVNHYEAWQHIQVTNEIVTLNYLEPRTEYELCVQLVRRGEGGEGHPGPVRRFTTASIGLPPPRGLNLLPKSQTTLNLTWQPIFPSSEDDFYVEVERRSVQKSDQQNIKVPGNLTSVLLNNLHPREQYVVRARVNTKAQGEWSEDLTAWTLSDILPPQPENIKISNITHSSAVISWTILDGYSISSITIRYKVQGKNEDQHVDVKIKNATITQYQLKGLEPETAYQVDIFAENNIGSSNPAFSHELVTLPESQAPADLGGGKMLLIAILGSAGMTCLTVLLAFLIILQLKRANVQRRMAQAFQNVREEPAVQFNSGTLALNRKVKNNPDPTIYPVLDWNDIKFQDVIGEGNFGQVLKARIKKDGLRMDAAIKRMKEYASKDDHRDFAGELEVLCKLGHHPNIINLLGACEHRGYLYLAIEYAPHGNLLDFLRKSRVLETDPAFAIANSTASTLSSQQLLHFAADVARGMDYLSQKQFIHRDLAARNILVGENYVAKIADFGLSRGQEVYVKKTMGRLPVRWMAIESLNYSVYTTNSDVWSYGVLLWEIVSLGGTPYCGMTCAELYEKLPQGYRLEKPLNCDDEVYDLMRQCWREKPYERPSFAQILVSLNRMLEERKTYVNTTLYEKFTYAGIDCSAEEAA

Molecules are shown by their SMILES.

Chain of Tyrosine-protein kinase HCK (Homo sapiens) (P08631 2-526 limits assumed): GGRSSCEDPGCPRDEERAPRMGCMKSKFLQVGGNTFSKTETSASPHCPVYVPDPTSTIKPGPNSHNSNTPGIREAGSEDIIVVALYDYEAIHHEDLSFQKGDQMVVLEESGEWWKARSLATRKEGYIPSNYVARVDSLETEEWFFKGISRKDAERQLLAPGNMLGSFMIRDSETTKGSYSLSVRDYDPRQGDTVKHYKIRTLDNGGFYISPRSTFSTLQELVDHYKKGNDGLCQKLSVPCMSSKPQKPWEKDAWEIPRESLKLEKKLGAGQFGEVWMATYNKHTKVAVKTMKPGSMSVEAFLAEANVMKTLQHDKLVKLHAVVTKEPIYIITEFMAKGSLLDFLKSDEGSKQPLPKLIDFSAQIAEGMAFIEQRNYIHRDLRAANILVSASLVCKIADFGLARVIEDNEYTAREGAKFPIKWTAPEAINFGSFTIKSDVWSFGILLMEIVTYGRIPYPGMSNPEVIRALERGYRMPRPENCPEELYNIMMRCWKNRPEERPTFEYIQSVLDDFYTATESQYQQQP
Chain of Dual specificity testis-specific protein kinase 1 (Homo sapiens) (Q15569 whole entry, looked up): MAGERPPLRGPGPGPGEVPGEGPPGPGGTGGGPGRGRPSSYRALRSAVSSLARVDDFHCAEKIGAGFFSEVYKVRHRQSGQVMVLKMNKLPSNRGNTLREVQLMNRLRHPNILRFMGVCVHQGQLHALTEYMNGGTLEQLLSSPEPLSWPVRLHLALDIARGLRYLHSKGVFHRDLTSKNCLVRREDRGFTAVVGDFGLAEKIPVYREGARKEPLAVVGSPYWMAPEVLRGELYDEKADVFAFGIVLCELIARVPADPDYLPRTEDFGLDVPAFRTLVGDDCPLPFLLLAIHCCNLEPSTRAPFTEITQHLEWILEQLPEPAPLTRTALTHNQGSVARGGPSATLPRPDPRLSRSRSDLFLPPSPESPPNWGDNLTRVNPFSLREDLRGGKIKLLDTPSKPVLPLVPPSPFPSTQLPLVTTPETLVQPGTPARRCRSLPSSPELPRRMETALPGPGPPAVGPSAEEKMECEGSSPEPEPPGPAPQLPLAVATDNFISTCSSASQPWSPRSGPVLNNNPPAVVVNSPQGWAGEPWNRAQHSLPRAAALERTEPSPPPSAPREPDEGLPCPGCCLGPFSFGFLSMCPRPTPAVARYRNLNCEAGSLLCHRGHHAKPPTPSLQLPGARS

In the case of `Cc1cc(F)c(C(=O)Nc2cccc(-c3nncn3C(C)C)n2)cc1-n1cnc(C2CC2)c1`, in assay [1], the % of control was found to be 100%.

With `Cc1cc([C@@H](C)Nc2ccccc2C(=O)O)c2nc(N3CCOCC3)cc(=O)n2c1` [AZD-6482], in assay [2], the % of control was 100%.

On to `C=CC(=O)Nc1cc(-n2c(=O)ccc3cnc4ccc(-c5ccc(NS(C)(=O)=O)cc5)cc4c32)ccc1C`, for which the % of control came to 79% in assay [3] (at 1 µM) and 85% in assay [3] (at 10 µM).

As for `CN(C)CCOc1ccc(-c2nc(-c3ccncc3)c(-c3ccc4c(c3)CC/C4=N\O)[nH]2)cc1`, the % of control in assay [4] came out at 98%. With `Cc1cc(CN)cc(C)c1-c1ncn(C)c1-c1cncn1C`, the % activity in assay [5] (at 1 µM) was more than 90%; in assay [5] (at 10 µM), more than 80%.

Consider `COc1cc(N(C)c2ccnc3ccc(C(F)(F)F)cc23)cc(OC)c1OC`, for which the % binding in assay [6] was 65%; in assay [7] it was 72%.
